Data reported in paper PMC12797171, “Preclinical Evaluation of a ^177Lu-Labeled Gastrin-Releasing Peptide Receptor Antagonist and Prostate Cancer Treatment with Monotherapy and in Combination with Everolimus” (ACS Pharmacology & Translational Science, 2025).
Several values for one entry are separate records, joined by “and”; a condition that tells them apart may be missing. Identical values can stand only once.

Experiments:
PC-3 tumors = test: In vivo combination therapy with everolimus in PC-3 tumor bearing mice; set-up: species or system mouse; details: for Tumor volume, average: 5mg/kg (x3)
Excerpt: Treatment began once tumors reached the same size threshold used in the monotherapy studies. Animals were divided into three groups (n = 4–5 per group) and received one of the following regimens: • 1.
Monitoring procedures matched those used in the monotherapy experiments.
The procedure is detailed in the supplementary material.
initiation of therapy in the combination treatment studies. Three groups of 5 mice per group were
Both monotherapy and combination

[1] = Morphological assessment / tolerability (H&E of kidney, pancreas, tumor)
Description: Selected mouse organs (kidney, pancreas and tumor) were dissected from the sacrificed animals and immediately frozen using liquid nitrogen. Frozen tissue samples were sectioned of 7 μm thickness using a cryostat maintained at – 20 °C to – 25 °C and mounted onto microscope glass slides followed by staining with hematoxylin and eosin for microscopic examination using standard protocols (details in Supporting Information).
Frozen tissue samples (kidney, pancreas and tumor) were sectioned at 7 µm thickness using a cryostat
maintained at −20°C to −25°C and mounted onto microscope glass slides. Sections were air-dried at
room temperature for 15 minutes and subsequently fixed in 4% paraformaldehyde for 10 minutes. After
rinsing in phosphate-buffered saline, slides were stained with hematoxylin for 5 minutes, rinsed in
running tap water and differentiated in 1% acid alcohol followed by bluing in ammonia water. Sections
were then counterstained with eosin for 1 minute and briefly washed in 70% ethanol to remove excess
stain. Slides were dehydrated through graded ethanol (70%, 95%, 100%) and mounted with a permanent
mounting medium. Stained sections were examined using a light microscope.

## CO[C@H]1C[C@@H]2CC[C@@H](C)[C@@](O)(O2)C(=O)C(=O)N2CCCC[C@H]2C(=O)O[C@H]([C@H](C)C[C@@H]2CC[C@@H](OCCO)[C@H](OC)C2)CC(=O)[C@H](C)/C=C(\C)[C@@H](O)[C@@H](OC)C(=O)[C@H](C)C[C@H](C)/C=C/C=C/C=C/1C [Everolimus, everolimus]
PC-3 tumors; 5 mg/kg/day for 3 days i.p.
  Median survival: 27.5 days and ~27 days
PC-3 tumors; day 0
  Tumor volume, average: 100.06 mm3
PC-3 tumors; day 2
  Tumor volume, average: 108.59 mm3
PC-3 tumors; day 4
  Tumor volume, average: 107.95 mm3
PC-3 tumors; day 6
  Tumor volume, average: 97.61 mm3
PC-3 tumors; day 8
  Tumor volume, average: 97.18 mm3
PC-3 tumors; day 10
  Tumor volume, average: 104.48 mm3
PC-3 tumors; day 12
  Tumor volume, average: 131.10 mm3
PC-3 tumors; day 14
  Tumor volume, average: 181.07 mm3
PC-3 tumors; day 16
  Tumor volume, average: 193.30 mm3
PC-3 tumors; day 18
  Tumor volume, average: 241.75 mm3
PC-3 tumors; day 20
  Tumor volume, average: 376.61 mm3
PC-3 tumors; day 22
  Tumor volume, average: 630.33 mm3
PC-3 tumors; day 24
  Tumor volume, average: 524.51 mm3
PC-3 tumors; day 27
  Tumor volume, average: 794.32 mm3
PC-3 tumors; day 29
  Tumor volume, average: 970.40 mm3
PC-3 tumors; everolimus alone, 5 mg/kg/day for 3 days
  effect on tumor growth: moderately delayed tumor growth but did not stop it
[1]; 5mg/kg (x3)
  Pancreas, microscopic tissue examination: No obvious lesions
[1]; three doses, physical condition and weight
  tolerability: no observable side effects
